Patent US9155776B2, “Low frequency glatiramer acetate therapy” (Yeda Research & Development Co., Ltd., priority 2009, dated 2015)
Read-outs that look alike come from different tables or passages of the source.

What was measured:
[1] = tested on: MS patients; conditions: 20 mg/day subcutaneous (s.c.) dose; cited from earlier work
[2] = tested on: patients who have experienced a clinically isolated syndrome (CIS); conditions: 20 mg daily s.c. injection; PCT/US2008/013146; cited from earlier work
[3] = tested on: subjects with Relapsing-Remitting Multiple Sclerosis (RRMS)
Procedure: The study is designed to select three days a week for injection. Three injections are administered for every seven days and there must be at least one day between each injection.
Eligible subjects are randomized in a 2:1 ratio (40 mg:placebo) and assigned to one of the following three treatment arms: • 1. […] Matching placebo three times weekly (450 subjects)
During the PC phase, subjects are evaluated at study sites for a total of 7 scheduled visits at months: −1 (screening), 0 (baseline), 1, 3, 6, 9, and 12 (End of PC phase).
During the study, the following assessments are performed (regardless of the treatment assignment) at the specified time points: • Vital signs are measured at each study visit. • A physical examination is performed at months −1 (screening), 0 (baseline) 6, 12 (end of PC phase) and every 6 months thereafter. In addition, a physical examination will be performed at the termination visit of the OL phase. • The following safety clinical laboratory tests are performed: • Complete blood count (CBC) with differential—at all scheduled visits in the PC phase, and every 12 months thereafter. In addition this test will be performed at the termination visit of the OL phase. • Serum chemistry (including electrolytes, creatinine, urea and liver enzymes) and urinalysis—at all scheduled visits in the PC phase, and every 12 months thereafter. In addition this test will be performed at the termination visit of the OL phase. • Serum β-hCG in women of child-bearing potential is performed at months −1 (screening), 0 (baseline), 12 (end of PC phase), and every 12 months thereafter. In addition this test will be performed at the termination visit of the OL phase. • ECG is performed at months −1 (screening), 0 (baseline), 12 (end of PC phase), and every 12 months thereafter. In addition an ECG will be performed at the termination visit of the OL phase. • Chest X-ray is performed at month −1 (screening) if not performed within 6 months prior to screening visit. • Adverse Events (AEs) are monitored throughout the study. • Concomitant Medications are monitored throughout the study. • Neurological evaluations, including Neurostatus [Functional Systems (FS), Expanded Disability Status Scale (EDSS), Ambulation Index (AI)] are performed at months −1 (screening), 0 (baseline), 3, 6, 9, 12 (end of PC phase) and every 6 months thereafter. In addition, a neurological examination are performed at the termination visit of the OL phase. • The general health status is assessed by the EuroQoL (EQ5D) questionnaire at months 0 (baseline) and 12 (end of PC phase). • Additional quality of life parameters are assessed by the WPAI (Work Productivity and Activities Impairment) Questionnaire at month 0 (baseline), 3, 6, 9 and 12 (end of PC phase). • All subjects undergo MRI scans at months 0 (13-7 days prior to baseline visit), 6 and 12 (end of PC phase). Following the results of the PC phase, the Sponsor may decide to perform an MRI scan at the termination visit of the OL phase. • Relapses are confirmed/monitored throughout the study.
Route and Dosage Form: • Glatiramer Acetate 40 mg in 1 ml for subcutaneous injection in a pre-filled syringe (PFS), administered three times a week. • Matching placebo injection (mannitol in 1 ml WFI) for subcutaneous injection in a pre-filled syringe (PFS). Outcome Measures: Primary Outcome Measure: • The total number of confirmed relapses during the 12 month PC phase.

[4] = tested on: patients who have experienced a clinically isolated syndrome (CIS); conditions: three s.c. injections over a period of seven days with at least one day between every injection
[5] = tested on: MS; conditions: controlled clinical trials; cited from earlier work
[6] = 40 mg s.c. three times weekly compared with 20 mg s.c. GA daily administration
[7] = 40 mg s.c. three times weekly vs placebo

L-glutamic acid polymer with L-alanine, L-lysine, L-tyrosine, acetate (salt) [GA]
total number of enhancing lesions in MS patients as measured by MRI [1]: has been shown to reduce
efficacy in treatment of patients who have experienced a clinically isolated syndrome (CIS) [2]: has been shown to work
reduction of subject population annualized relapse rate ([3]; 40 mg s.c. three times weekly compared to the placebo group, RRMS subjects): ≥ 30%
increasing the proportion of relapse-free subjects during the placebo-controlled phase [3, 6]: at least as effective as 20 mg s.c. GA daily administration
increasing the time to the first confirmed relapse during the placebo-controlled phase [3, 6]: at least as effective as 20 mg s.c. GA daily administration
reducing the change from baseline to month 12 (end of placebo-controlled phase) in EDSS Score [3, 6]: at least as effective as 20 mg s.c. GA daily administration
reducing the cumulative number of enhancing lesions on T1-weighted images taken at months 6 and 12 [3, 6]: at least as effective as 20 mg s.c. GA daily administration
reducing the level of disability as measured by EDSS Score [3, 6]: at least as effective as 20 mg s.c. GA daily administration
reducing the level of disability as measured by EuroQoL (EQ5D) questionnaire [3, 6]: at least as effective as 20 mg s.c. GA daily administration
reducing the level of disability as measured by the work productivity and activities impairment-General Health (WPAI-GH) questionnaire [3, 6]: at least as effective as 20 mg s.c. GA daily administration
reducing the number of new T2 lesions at month 12 [3, 6]: at least as effective as 20 mg s.c. GA daily administration
reducing the number of new hypointense lesions on enhanced T1 scans at month 12 as compared to the baseline scan [3, 6]: at least as effective as 20 mg s.c. GA daily administration
reducing the progression of MRI-monitored disease activity in the patient [3, 6]: at least as effective as 20 mg s.c. GA daily administration
reducing the subject population annualized relapse rate [3, 6]: at least as effective as 20 mg s.c. GA daily administration
reducing the total number of confirmed relapses during the placebo-controlled phase requiring hospitalization and/or IV steroids [3, 6]: at least as effective as 20 mg s.c. GA daily administration
reducing proportion (%) of subjects with confirmed EDSS progression during the placebo-controlled phase ([3]; 40 mg s.c. three times weekly compared with 20 mg s.c. GA daily administration, progression of at least 1 EDSS point sustained for at least 3 months): at least as effective as 20 mg s.c. GA daily administration
change from baseline to month (end of placebo-controlled phase) in EDSS Score [3, 7]: significantly reduces
cumulative number of enhancing lesions on T1-weighted images taken at months 6 and 12 [3, 7]: significantly reduces
level of disability as measured by EDSS Score [3, 7]: significantly reduces
level of disability as measured by EuroQoL (EQ5D) questionnaire [3, 7]: significantly reduces
level of disability as measured by the work productivity and activities impairment-General Health (WPAI-GH) questionnaire [3, 7]: significantly reduces
number of new T2 lesions at month 12 [3, 7]: significantly reduces
number of new hypointense lesions on enhanced T1 scans at month 12 as compared to the baseline scan [3, 7]: significantly reduces
progression of MRI-monitored disease activity in the patient [3, 7]: significantly reduces
proportion of relapse-free subjects during the placebo-controlled phase [3, 7]: significantly increases
time to the first confirmed relapse during the placebo-controlled phase [3, 7]: significantly increases
total number of confirmed relapses during the placebo-controlled phase requiring hospitalization and/or IV steroids [3, 7]: significantly reduces
proportion (%) of subjects with confirmed EDSS progression during the placebo-controlled phase ([3]; 40 mg s.c. three times weekly vs placebo, progression of at least 1 EDSS point sustained for at least 3 months): significantly reduces
efficacy in treatment of patients who have experienced a clinically isolated syndrome (CIS) [4]: expected to work

B1: IFNβ-1b: immunomodulator (IFNβ 1b) whose efficacy in MS was shown in controlled clinical trials (protein, UniProt P01574 22-187, looked up, variant C17S)
Interferon beta: MSYNLLGFLQRSSNFQSQKLLWQLNGRLEYCLKDRMNFDIPEEIKQLQQFQKEDAALTIYEMLQNIFAIFRQDSSSTGWNETIVENLLANVYHQINHLKTVLEEKLEKEDFTRGKLMSSLHLKRYYGRILHYLKAKEYSHCAWTIVRVEILRNFYFINRLTGYLRN
efficacy in the treatment of MS [5]: demonstrated the efficacy
